In patent publication EP2601188B1, “HEPATITIS C VIRUS INHIBITORS” (Bristol-Myers Squibb Company, priority 2010, dated 2012):
Where two headings read alike, the source gives them in different places.

Tested on: HCV 1b genotype
Assay: HCV Replicon assay (HCV-neo replicon cells, wild-type)
Type: cell-based
Settings: HCV 1b genotype replicon
Protocol: An HCV Replicon assay was utilized in the present disclosure, and was prepared, conducted and validated as described in commonly owned PCT/US2006/022197 and in O'Boyle et. al. Antimicrob Agents Chemother. 2005 Apr;49(4):1346-53. Assay methods incorporating luciferase reporters have also been used as described (Apath.com).
HCV-neo replicon cells and replicon cells containing mutations in the NS5A region were used to test the currently described family of compounds. The compounds were determined to have more than 10-fold less inhibitory activity on cells containing mutations than wild-type cells. Thus, the compounds of the present disclosure can be effective in inhibiting the function of the HCV NS5A protein and are understood to be as effective in combinations as previously described in application PCT/US2006/022197 and commonly owned WO/O4014852. Further, the compounds of the present disclosure can be effective against the HCV 1b genotype. It should also be understood that the compounds of the present disclosure can inhibit multiple genotypes of HCV. […] In one embodiment, compounds of the present disclosure are inhibitory versus 1a, 1b, 2a, 2b, 3a, 4a, and 5a genotypes.

[1] = Hepatitis C virus, class symbols, read-out: EC50 Range

Compound	EC50 [1]	EC50 (Hepatitis C virus, values in nM, read-out: EC50)	EC50 (class symbols, read-out: EC50 Range)
O=C(Nc1ccc(C#Cc2ccc3nc([C@@H]4CCCN4C(=O)Cc4ccccc4)[nH]c3c2)cc1)[C@@H]1CCCN1C(=O)Cc1ccccc1 [M.9, (S)-1-(2-phenylacetyl)-N-(4-((2-((S)-1-(2-phenylacetyl)pyrrolidin-2-yl)-1H-benzo [d]imidazol-6-yl)ethynyl)phenyl)pyrrolidine-2-carboxamide]	4.57 to 99 nM	–	–
CC(=O)N1CCC[C@H]1C(=O)Nc1ccc(CCc2ccc3nc([C@@H]4CCCN4C(=O)Cc4ccccc4)[nH]c3c2)cc1 [M.10, (S)-1-acetyl-N-(4-(2-(2-((S)-1-(2-phenylacetyl)pyrrolidin-2-yl)-1H-benzo[d]imidazol-6-yl)ethyl)phenyl)pyrrolidine-2-carboxamide]	100 to 999 nM	202 nM	–
O=C(Nc1ccc(CCc2ccc3nc([C@@H]4CCCN4C(=O)Cc4ccccc4)[nH]c3c2)cc1)[C@@H]1CCCN1C(=O)Cc1ccccc1 [M.11, (S)-1-(2-phenylacetyl)-N-(4-(2-(2-((S)-1-(2-phenylacetyl)pyrrolidin-2-yl)-1H-benzo [d]imidazol-6-yl)ethyl)phenyl)pyrrolidine-2-carboxamide]	4.57 to 99 nM	–	–
(2R)-2-(dimethylamino)-N-(3-(5-(2-((2S)-1-((2R)-2-(dimethylamino)-2-phenylacetyl)-2-pyrrolidinyl)-1H-benzimidazol-5-yl)-1,3-oxazol-2-yl)phenyl)-2-phenylacetamide [J.48b]	–	–	4.57 to 99 nM
